This note sets out measurements from patent US10961233B2 (LIFEARC, priority 2016, dated 2021).

The structures appear in SMILES notation. Some results are limits rather than exact numbers.

The target of test [1] is WT full length PAICS (Homo sapiens (Human), UniProt P22234). In words: Biochemical assay to measure PAICS activity (Transcreener ADP2 FI). The note with it: SAICAR synthetase reaction, ADP detection, 30 min pre-incubation. An excerpt: Biochemical Assay to Measure PAICS Activity
The biochemical assay was used to measure PAICS SAICAR synthetase-mediated conversion of CAIR, aspartic acid and ATP to SAICAR, ADP and inorganic phosphate (Pi), post-AIR/CAIR equilibration (see FIG. 3). This was achieved by detecting the ADP generated during the reaction, using Bellbrook Lab's Transcreener ADP^2 FI assay. An increase in the fluorescence intensity is directly proportional to the amount of PAICS activity.
The Transcreener ADP^2 FI assay is a homogeneous competitive displacement fluorescence intensity assay which uses direct immunodetection of ADP. Displacement of the tracer by ADP causes an increase in the fluorescence at excitation 590 nm and emission 617 nm (FIG. 3).
5 μl WT full length PAICS (final assay concentration, fac, 2.5 nM) in basic buffer, added to black, non-binding, 384-well plates (Corning #3575), columns 1 to 22. 5 μl basic buffer was added to columns 23+24 (negative control). PAICS stock at 31.9 μM from the PI's lab (Steve Firestine). Basic buffer contained 50 mM Tris-HCl pH8 and 0.5 mM EDTA, fac.
1 μl compound in 100% DMSO added per well, or 1 μl 100% DMSO to positive controls (columns 1+2) and negative controls (columns 23+24). Final assay top concentration of compound either 1 mM or 30-μM, serially diluted with half-log dilutions across the plate in duplicate (one 10-point concentration response curve across wells 3 to 12, another across 13 to 22). Compounds pre-incubated with PAICS enzyme for 30 mins at RT. 2 μl CAIR added (fac 10 μM) in basic buffer plus 25 mM MgCl2 and 50 mM KHCO3 fac to all wells. CAIR stock 50 mM from Steve Firestine's lab. 1 hr RT incubation for AIR-CAIR equilibration. NB: ˜50% CAIR is decarboxylated during equilibration therefore 5 μM remains for the synthetase reaction.
2 μl ATP/aspartic acid added (fac 30 μM/180 μM) in reaction buffer to all wells. 30 mins RT incubation for appropriate level of ATP turnover. Reaction buffer contained basic buffer plus 10 mM DTT, 0.01% BSA and 0.01% Brij 35, fac.
10 μl ADP detection reagent added to all wells (as per instructions, Transcreener ADP^2 FI kit, BellBrook Labs #3013-10K). Incubation for 1 h at RT to allow antibody equilibration. Fluorescence intensity determined using a Tecan Safire2 (excitation at 590 nm, emission at 617 nm).

Test [2] concerns LM2 and MDA-MB-231 breast cancer cell lines. In words: PAICS 2D cell proliferation assay (CellTiter-Glo viability, 72 h). It is filed as cell-based. The note with it: Homo sapiens; 72 h incubation; cell line not given. Here is the method:
PAICS 2D Cell Proliferation Assay
Frozen cryovial stocks of LM2 and MDA-MB-231 breast cancer cell lines were thawed and cultured in 4.5 g/L glucose DMEM (31966-047, Invitrogen) supplemented with 10% Fetal Bovine Serum (10500-064, Invitrogen) until confluent in a T175 flask. Cells were incubated at 37° C. with 5% CO2 in a humidified incubator.
Cells were collected from T175 flasks by washing with PBS (10010-056, Invitrogen) and dissociated using Accutase (A6964, Sigma Aldrich). This was followed by centrifuging (1200 rpm, 5 min) and resuspending the cells in 10 ml of media containing 1% penicillin/streptomycin (15140-122, Invitrogen). Cells were counted by trypan blue exclusion method using an automated cell counter (Cellometer) and diluted to a concentration of 40,000/ml. 1000 cells were then seeded into 384-well white-walled plates (Corning, 3707) in a volume of 25 μl. Plates were Incubated overnight at 37° C. with 5% CO2.
After 24 hours, PAICS compounds were added onto the assay plates using an HP D300 Digital Dispenser (Hewlett Packard). 10 mM stocks were used and dispensed as a 10 point concentration response curve (CRC) ½ log dilution series with a final top concentration of 100 μM. Controls were added onto each plate: positive controls included Staurosporine CRC (100 μM stock dispensed as a 10 point CRC ½ log dilution series with a final top concentration of 1 μM) and PAICS compound MRT00211919 (10 mM stock dispensed as a 10 point CRC ½ log dilution series with a final top concentration of 100 μM); a high control of Staurosporine (0.1 μM (LM2), 0.316 μM (MDA-MB-231) FAC) and a low control of media containing 1% DMSO. A final concentration of 1% DMSO was then added across the plates for normalisation. Following compound addition, assay plates were incubated for 72 hours at 37° C. with 5% CO2.
Day 5—Cytotoxicity and Cell Viability Assays
After 72 h incubation, dead and viable cells were measured in each assay plate. Cytotoxicity was assessed through fluorescent DNA staining using the CellTox™ Green Cytotoxicity Assay kit (G8743, Promega) following the manufacturer's multiplexing protocol. Impaired cell membrane integrity results in the access of dye to stain DNA allowing quantification of dead cells. Cell viability was determined following ATP quantification using the CellTiter-Glo® Luminescent Cell Viability Assay kit (G7572, Promega) following the manufacturer's protocol. ATP released from lysed cells allowed for the generation of a signal proportional to the number of cells present in the well. All endpoint reads were performed using the PheraSTAR Plus (BMG Labtech). Data is expressed as % viable cells and % dead cells against controls (mean±SEM of duplicate curves).
A general note: Cellular ATP, detected with luciferase, serves as a proxy for viable cell number.

Test [3] has as its system wild type LM2 and CRISPR edited LM2. In words: 2D cell proliferation assay, wild type LM2 versus PAICS CRISPR edited LM2. In kind it is cell-based, human. The note with it: LM2 cells, PAICS CRISPR edited vs wild type. As for the experimental part:
Cas9 nuclease-mediated gene editing (Sander and Joung, 2014) was performed using a CRISPR RNA guide sequence ([…], PAM: AGG) targeting exon 3 in the human PAICS gene (accession number: NM_006452).
Stable cell clones were isolated and gene disruption confirmed by DNA sequencing and the absence of PAICS cellular protein expression confirmed by Western blotting.
A small set of compounds were tested against wild type LM2 and CRISPR edited LM2 in the 2D cell proliferation assay to establish to what extent the cellular potency was driven by PAICS mediated effects. The data is shown in Table 2: compounds tested had no effect on CRISPR edited cells, confirming the on-targets effect as being PAICS mediated.

The test system of test [4] is MDA-MB-231 Dlux cells. In words: MDA-MB-231-Dlux xenograft model. In kind it is in vivo. The note with it: oral 25 mg/kg twice daily, 2 weeks, mammary fat pad implant, MF-1 nude mice. Here is the method: Evaluation of Compound 69 in MDA-MB-231-Dlux Xenograft Model
Mice were implanted with MDA-MB-231 Dlux cells in the mammary fat pad. Mice were treated with test agent, (Compound 69), standard of care control agent, docetaxel, or vehicle control, once tumours reached a mean volume of ˜100-200 mm^3. Tumours were measured every 2-3 days using electronic calipers and tumour volume estimated using the formula 0.5 (L×W^2). Treatment continued for 2 weeks. Mice were observed and body weight measured daily
MF-1 (HsdOla:MF1-Foxn1^nu)
MDA-MB-231 Dlux (Bioluminescent MDA-MD-231 variant)
Implantation Site: Mammary fat pad (1:1 matrgel/PBS)
Compound 69 (Oral 25 mg/kg twice daily)
Docetaxel (IV 5 mg/kg twice weekly)

Sequence of WT full length PAICS (P22234 whole entry): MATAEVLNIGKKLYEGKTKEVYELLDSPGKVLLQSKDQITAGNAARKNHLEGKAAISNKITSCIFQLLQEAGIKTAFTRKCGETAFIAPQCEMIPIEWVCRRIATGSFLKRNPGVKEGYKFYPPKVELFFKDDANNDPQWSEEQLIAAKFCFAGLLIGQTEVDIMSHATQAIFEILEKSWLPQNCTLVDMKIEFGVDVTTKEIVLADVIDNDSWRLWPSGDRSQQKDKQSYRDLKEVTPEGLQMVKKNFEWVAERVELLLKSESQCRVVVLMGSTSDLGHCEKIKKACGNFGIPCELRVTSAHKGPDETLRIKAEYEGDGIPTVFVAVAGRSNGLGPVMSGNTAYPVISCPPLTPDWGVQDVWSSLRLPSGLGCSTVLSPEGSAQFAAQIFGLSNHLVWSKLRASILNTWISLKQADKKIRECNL

What is called IC50 is the concentration needed to halve the response being measured. The low end stands for greater potency in that assay, the high end for weaker potency in that assay. Broadly, the EC50 is the midpoint of the concentration-response curve. `CN(C)CCOC(=O)N1CCN(c2ccc(Br)c(NC(=O)c3coc(N)n3)c2)CC1` [Example 23, 2-(Dimethylamino)ethyl 4-(3-(2-aminooxazole-4-carboxamido)-4-bromophenyl)piperazine-1-carboxylate] gave an IC50 in test [1] of 10 to 25 nM. In addition, the EC50 in test [2] fell in the range of 100 to 250 nM. Also, the “Potency shift: CRISPR Cell EC50/WT Cell EC50” value (shortened to “Potency shift”) in test [3] is recorded as greater than 500.
Taken in the same sequence, the figures for `CN(C)CCCOC(=O)N1CCN(c2ccc(Br)c(NC(=O)c3coc(N)n3)c2)CC1` [Example 24, 3-(Dimethylamino)propyl 4-(3-(2-aminooxazole-4-carboxamido)-4-bromophenyl)piperazine-1-carboxylate] were 10 to 25 nM, 100 to 250 nM and greater than 500.
As to `CNCCS(=O)(=O)N1CCN(c2ccc(Br)c(NC(=O)c3coc(N)n3)c2)CC1` [Example 55, 2-Amino-N-[2-bromo-5-(4-{[2-(methylamino)ethyl]sulfonyl}piperazin-1-yl)phenyl]-1,3-oxazole-4-carboxamide], the IC50 in test [1] was less than 10 nM. In test [2], the EC50 is less than 100 nM. Besides, the “Potency shift” value in test [3] is greater than 500.
In turn, `CN(C)CCCS(=O)(=O)N1CCN(c2ccc(Br)c(NC(=O)c3coc(N)n3)c2)CC1` [Example 69, 2-Amino-N-(2-bromo-5-(4-(3-(dimethylamino)propylsulfonyl)piperazin-1-yl)phenyl)oxazole-4-carboxamide] showed an IC50 in test [1] of less than 10 nM. This compound also displayed a concentration giving a half-maximal response (EC50) in test [2] of less than 100 nM. For the same compound, the “Potency shift” value in test [3] was greater than 500. The “growth of primary tumour” value in test [4] is “statistically significant reduction in growth of primary tumour”.
`CCNCCCS(=O)(=O)N1CCN(c2ccc(Br)c(NC(=O)c3coc(N)n3)c2)CC1` [Example 70, 2-Amino-N-[2-bromo-5-(4-{[3-(ethylamino)propyl]sulfonyl}piperazin-1-yl)phenyl]-1,3-oxazole-4-carboxamide] displayed a half-maximal inhibitory concentration (IC50) in test [1] of less than 10 nM. The compound further had an EC50 in test [2] of less than 100 nM.
In the same order, the values of `CC(C)NCCCS(=O)(=O)N1CCN(c2ccc(Cl)c(NC(=O)c3coc(N)n3)c2)CC1` [Example 72, 2-Amino-N-[2-chloro-5-(4-{[3-(propan-2-ylamino)propyl]sulfonyl}piperazin-1-yl)phenyl]-1,3-oxazole-4-carboxamide] are less than 10 nM and 100 to 250 nM.
In test [1], `CNCCCS(=O)(=O)N1CCN(c2ccc(Cl)c(NC(=O)c3coc(N)n3)c2)CC1` [Example 73, 2-Amino-N-[2-chloro-5-(4-{[3-(methylamino)propyl]sulfonyl}piperazin-1-yl)phenyl]-1,3-oxazole-4-carboxamide] displayed a half-maximal inhibitory concentration (IC50) of 10 to 25 nM. The same compound returned a concentration giving a half-maximal response (EC50) in test [2] of 250 to 500 nM.
Taken in the same sequence, the figures for `CCNCCCS(=O)(=O)N1CCN(c2ccc(Cl)c(NC(=O)c3coc(N)n3)c2)CC1` [Example 74] were less than 10 nM and 250 to 500 nM.
In the same order, the values of `CNCCCS(=O)(=O)N1CCN(c2ccc(Br)c(NC(=O)c3coc(N)n3)c2)CC1` [Example 75, 2-Amino-N-[2-bromo-5-(4-{[3-(methylamino)propyl]sulfonyl}piperazin-1-yl)phenyl]-1,3-oxazole-4-carboxamide] are less than 10 nM and 100 to 250 nM.
Take `CC(C)NCCCS(=O)(=O)N1CCN(c2ccc(Br)c(NC(=O)c3coc(N)n3)c2)CC1` [Example 76, 2-Amino-N-[2-bromo-5-(4-{[3-(propan-2-ylamino)propyl]sulfonyl}piperazin-1-yl)phenyl]-1,3-oxazole-4-carboxamide]: in test [1], the 50% inhibitory concentration (IC50) is less than 10 nM. For the same compound, the EC50 in test [2] was less than 100 nM.
In the same order, the values of `CCN(CC)CCCS(=O)(=O)N1CCN(c2ccc(Br)c(NC(=O)c3coc(N)n3)c2)CC1` [Example 77, 2-Amino-N-[2-bromo-5-(4-{[3-(diethylamino)propyl]sulfonyl}piperazin-1-yl)phenyl]-1,3-oxazole-4-carboxamide] are less than 10 nM and less than 100 nM.
In the same order, the values of `Nc1nc(C(=O)Nc2cc(N3CCN(S(=O)(=O)C4CCNCC4)CC3)ccc2Br)co1` [Example 84] are less than 10 nM and 100 to 250 nM.
In the same order, the values of `CN1CCC(S(=O)(=O)N2CCN(c3ccc(Br)c(NC(=O)c4coc(N)n4)c3)CC2)CC1` [Example 85, 2-Amino-N-(2-bromo-5-{4-[(1-methylpiperidin-4-yl)sulfonyl]piperazin-1-yl}phenyl)-1,3-oxazole-4-carboxamide] are less than 10 nM and 100 to 250 nM.
`Nc1nc(C(=O)Nc2cc(N3CCN(S(=O)(=O)C4CCNCC4)CC3)ccc2Cl)co1` [Example 86, 2-Amino-N-{2-chloro-5-[4-(piperidin-4-ylsulfonyl)piperazin-1-yl]phenyl}-1,3-oxazole-4-carboxamide]: the IC50 in test [1] was 10 to 25 nM. The 50% effective concentration (EC50) in test [2] was 250 to 500 nM.
For the compound `CN1CCC(S(=O)(=O)N2CCN(c3ccc(Cl)c(NC(=O)c4coc(N)n4)c3)CC2)CC1` [Example 87, 2-Amino-N-{2-chloro-8-(4-[(1-methylpiperidin-4-yl)sulfonyl]piperazin-1-yl}phenyl)-1,3-oxazole-4-carboxamide], the concentration for half-maximal inhibition (IC50) in test [1] lay in the range of 10 to 25 nM. This compound registered an EC50 in test [2] of 250 to 500 nM.
